Experimental findings from patent US7511145B2 (Genelabs Technologies, Inc., priority 2003, dated 2009) are described below.

The target in the test is T1, HCV-NS5b (Hepatitis C virus genotype 1b, UniProt Q9WMX2).
T1 construct: (His)6 (C); made in house; host or cells: XL-1 cells (E. coli), IPTG-inducible plasmid, nickel-NTA purification
The test is described as follows: HCV-NS5b enzyme assay (incorporation of radiolabeled UTP). Format: biochemical. The conditions noted are these: for inhibition at 33 µM: enzyme inhibition at compound concentration of 33 uM; for inhibition at 100 µM: read-out: % inh@100, enzyme inhibition at compound concentration of 100 uM. The method, boiled down:
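His6-tagged NS5b lacking the C-terminal 21 residues, expressed in XL-1 and Ni-NTA purified. Reaction at pH 7.5 with 5 mM MgCl2, 10 μM each NTP including [3H]-UTP and biotinylated HCV heteropolymeric template, 2 h at 37° C; SPA read-out; % inhibition at 100 and 33 uM versus no-compound control, background subtracted.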

SMILES strings stand for the structures.

Turning to `Cc1cc(-c2ccccc2Br)nc2ccc(-c3nc4cc(C(=O)O)ccc4n3C3CCCCC3)cc12` [Compound 471, 2-[2-(2-Bromo-phenyl)-4-methyl-quinolin-6-yl]-1-cyclohexyl-1H-benzoimidazole-5-carboxylic acid], the inhibition at 33 µM came out at 97.8% and the inhibition at 100 µM worked out at 99.8%.
The matching figures for `Cc1cc(-c2ccc3cc(-c4nc5cc(C(=O)O)ccc5n4C4CCCCC4)ccc3n2)c(-c2ccccc2)s1` [Compound 472, 1-cyclohexyl-2-[2-(5-methyl-2-phenyl-thiophen-3-yl)-quinolin-6-yl]-1H-benzoimidazole-5-carboxylic acid]: 97.1% and 98.1%.
On to `O=C(O)c1ccc2c(c1)nc(-c1ccc3nc(-c4ccc(-n5ccnc5)cc4)ccc3c1)n2C1CCCCC1` [Compound 473, 1-cyclohexyl-2-[2-(4-imidazol-1-yl-phenyl)-quinolin-6-yl]-1H-benzoimidazole-5-carboxylic acid], for which the inhibition at 33 µM stood at 99.2% and the inhibition at 100 µM is 97.4%.
Regarding `O=C(O)c1ccc2c(c1)nc(-c1ccc3nc(-c4cccc(O)c4)ccc3c1)n2C1CCCCC1` [Compound 474, 1-Cyclohexyl-2-[2-(3-hydroxy-phenyl)-quinolin-6-yl]-1H-benzoimidazole-5-carboxylic acid], the inhibition at 33 µM was determined as 97% and the inhibition at 100 µM came to 101%.
The matching figures for `COCCOc1ccc(-c2ccc(Cl)cc2)c(-c2ccc3cc(-c4nc5cc(C(=O)O)ccc5n4C4CCCCC4)ccc3n2)c1` [Compound 475, 2-{2-[4′-Chloro-4-(2-methoxy-ethoxy)-biphen-2-yl]-quinolin-6-yl}-1-cyclohexyl-1H-benzoimidazole-5-carboxylic acid]: 97.5% and 95.9%.
The matching figures for `O=C(O)c1ccc2c(c1)nc(-c1ccc3nc(CCn4cccn4)ccc3c1)n2C1CCCCC1` [Compound 476, 1-cyclohexyl-2-[2-(2-pyrazol-1-yl-ethyl)-quinolin-6-yl]-1H-benzoimidazole-5-carboxylic acid]: 97.3% and 97.1%.
The matching figures for `O=C(O)c1cnc2c(c1)nc(-c1ccc3nc(-c4ccccc4Br)ccc3c1)n2C1CCCCC1` [Compound 477, 2-[2-(2-bromo-phenyl)-quinolin-6-yl]-3-cyclohexyl-3H-imidazo[4,5-b]pyridine-6-carboxylic acid]: 92.4% and 95.9%.
`O=C(O)c1ccc2c(c1)nc(-c1ccc3nc(-c4ccc5c(c4)CCO5)ccc3c1)n2C1CCCCC1` [Compound 478, 1-cyclohexyl-2-[2-(2,3-dihydro-benzofuran-5-yl)-quinolin-6-yl]-1H-benzoimidazole-5-carboxylic acid]: the inhibition at 33 µM is 95.8% and the inhibition at 100 µM is 97.2%.
For `O=C(O)c1ccc2c(c1)nc(-c1ccc3nc(-c4cc(-c5ccc(Cl)c(Cl)c5)no4)ccc3c1)n2C1CCCCC1` [Compound 479, 1-cyclohexyl-2-{2-[3-(3,4-dichloro-phenyl)-isoxazol-5-yl]-quinolin-6-yl}-1H-benzoimidazole-5-carboxylic acid], the inhibition at 33 µM turned out to be 99.6% and the inhibition at 100 µM came to 102%.
With `Nc1cc(-c2ccccc2)sc1-c1ccc2cc(-c3nc4cc(C(=O)O)ccc4n3C3CCCCC3)ccc2n1` [Compound 480, 2-[2-(3-amino-5-phenyl-thiophen-2-yl)-quinolin-6-yl]-1-cyclohexyl-1H-benzoimidazole-5-carboxylic acid], the inhibition at 33 µM worked out at 101% and the inhibition at 100 µM is 104%.
Take `CN(C)c1cc(-c2ccccc2)nc2ccc(-c3nc4cc(C(=O)O)ccc4n3C3CCCCC3)cc12` [Compound 481, 1-cyclohexyl-2-(4-dimethylamino-2-phenyl-quinolin-6-yl)-1H-benzoimidazole-5-carboxylic acid]: the inhibition at 33 µM turned out to be 76.5% and the inhibition at 100 µM is 96.7%.
Take `O=C(O)c1ccc2c(c1)nc(-c1ccc3nc(-c4cccc(Br)c4)ccc3c1)n2C1CCCCC1` [Compound 482, 2-[2-(3-bromo-phenyl)-quinolin-6-yl]-1-cyclohexyl-1H-benzoimidazole-5-carboxylic acid]: the inhibition at 33 µM is 100% and the inhibition at 100 µM stood at 101%.
The matching figures for `O=C(O)c1ccc2c(c1)nc(-c1ccc3nc(-c4cccc(-c5ccc(Cl)cc5)c4)ccc3c1)n2C1CCCCC1` [Compound 483, 2-[2-(4′-chloro-biphenyl-3-yl)-quinolin-6-yl]-1-cyclohexyl-1H-benzoimidazole-5-carboxylic acid]: 102% and 99.4%.
For the molecule `COc1ccc(-c2cnc(OC)nc2OC)c(-c2ccc3cc(-c4nc5cc(C(=O)O)ccc5n4C4CCCCC4)ccc3n2)c1` [Compound 484, 1-cyclohexyl-2-{2-[2-(2,4-dimethoxy-pyrimidin-5-yl)-5-methoxy-phenyl]-quinolin-6-yl}-1H-benzoimidazole-5-carboxylic acid], the inhibition at 33 µM turned out to be 99.6% and the inhibition at 100 µM turned out to be 98.3%.
Take `Cc1cc(-c2ccccc2-c2ccc(Cl)cc2)nc2ccc(-c3nc4cc(C(=O)O)ccc4n3C3CCCCC3)cc12` [Compound 485, 2-[2-(4′-Chloro-biphen-2-yl)-4-methyl-quinolin-6-yl]-1-cyclohexyl-1H-benzoimidazole-5-carboxylic acid]: the inhibition at 33 µM is 98.6% and the inhibition at 100 µM amounted to 99.5%.
The matching figures for `COc1cccc(-c2ccc3cc(-c4nc5cc(C(=O)O)ccc5n4C4CCCCC4)ccc3n2)c1` [Compound 486, 1-Cyclohexyl-2-[2-(3-methoxy-phenyl)-quinolin-6-yl]-1H-benzoimidazole-5-carboxylic acid]: 93.5% and 97.9%.
Consider `O=C(O)c1ccc2c(c1)nc(-c1ccc3nc(-c4cc(O)ccc4-c4ccccc4)ccc3c1)n2C1CCCCC1` [Compound 487, 1-Cyclohexyl-2-[2-(4-hydroxy-biphen-2-yl)-quinolin-6-yl]-1H-benzoimidazole-5-carboxylic acid], for which the inhibition at 33 µM amounted to 102% and the inhibition at 100 µM came out at 101%.
For the molecule `O=C(O)c1ccc2c(c1)nc(-c1ccc3nc(-c4ccc(N5CCNCC5)cc4)ccc3c1)n2C1CCCCC1` [Compound 488, 1-cyclohexyl-2-[2-(4-piperazin-1-yl-phenyl)-quinolin-6-yl]-1H-benzoimidazole-5-carboxylic acid], the inhibition at 33 µM came to 91.8% and the inhibition at 100 µM is 97.2%.
The matching figures for `CCCN(CCC)Cc1ccc2cc(-c3nc4cc(C(=O)O)ccc4n3C3CCCCC3)ccc2n1` [Compound 489, 1-cyclohexyl-2-(2-dipropylaminomethyl-quinolin-6-yl)-1H-benzoimidazole-5-carboxylic acid]: 87% and 96%.
The matching figures for `O=C(O)c1cnc2c(c1)nc(-c1ccc3nc(-c4ccccc4-c4ccc(Cl)cc4)ccc3c1)n2C1CCCCC1` [Compound 490, 2-[2-(4′-chloro-biphen-2-yl)-quinolin-6-yl]-3-cyclohexyl-3H-imidazo[4,5-b]pyridine-6-carboxylic acid]: 95.9% and 94.3%.
